Experiment in all cases: ERK1/2 phosphorylation
What all share (assay type): cell-based

One assay has as its target T1, hCTR V357A (Homo sapiens, UniProt P30988, V357A).
T1 construct: c-Myc (N); expressed in transfected cells
T1 sequence (P30988 25-474 V357A): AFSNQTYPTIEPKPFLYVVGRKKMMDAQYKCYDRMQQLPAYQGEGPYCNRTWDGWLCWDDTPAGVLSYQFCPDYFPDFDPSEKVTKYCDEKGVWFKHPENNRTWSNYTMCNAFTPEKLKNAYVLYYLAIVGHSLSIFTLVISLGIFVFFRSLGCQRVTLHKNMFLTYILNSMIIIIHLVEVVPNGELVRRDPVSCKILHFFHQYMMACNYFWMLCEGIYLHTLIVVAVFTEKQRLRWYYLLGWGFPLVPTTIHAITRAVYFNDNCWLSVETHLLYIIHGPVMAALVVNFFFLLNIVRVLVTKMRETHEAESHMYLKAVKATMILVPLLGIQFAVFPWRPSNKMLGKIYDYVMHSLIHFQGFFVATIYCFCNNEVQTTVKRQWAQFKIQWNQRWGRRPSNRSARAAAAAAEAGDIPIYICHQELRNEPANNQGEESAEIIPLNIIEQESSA
To be noted: CV1-FlpIn cells, mean ± S.E.M.; for Emax: pERK maximal response. The procedure, abridged:
(§1)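 Overnight-plated cells at 2.5 × 10^4/well are stimulated, and ERK1/2 phosphorylation is referenced to the 10% FBS response at 6 min before logistic curve fitting.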

A further assay deals with T2, hCTR M376A (Homo sapiens, UniProt P30988, M376A).
T2 construct: c-Myc (N); expressed in transfected cells
T2 sequence (P30988 25-474 M376A): T1 sequence (P30988 25-474 V357A) with A333V, M352A
Particulars: CV1-FlpIn cells, mean ± S.E.M.; for Emax: pERK maximal response; for EC50: pERK, three-parameter logistic fit. An outline of the steps: as §1

The target of another assay is T3, hCTR Y372A (Homo sapiens, UniProt P30988, Y372A).
T3 construct: c-Myc (N); expressed in transfected cells
T3 sequence (P30988 25-474 Y372A): T1 sequence (P30988 25-474 V357A) with A333V, Y348A
To be noted: CV1-FlpIn cells, mean ± S.E.M.; for Emax: pERK maximal response. The procedure, abridged: as §1

The target in a further assay is T4, hCTR WT (Homo sapiens, UniProt P30988).
T4 construct: expressed in transfected cells
T4 sequence (P30988 25-474): T1 sequence (P30988 25-474 V357A) with A333V
Particulars: CV1-FlpIn cells, mean ± S.E.M.; for Emax: pERK maximal response; for EC50: pERK, three-parameter logistic fit. The procedure, abridged:
as §1

Another assay has as its target T5, hCTR V283A (Homo sapiens, UniProt P30988, V283A).
T5 construct: expressed in transfected cells
T5 sequence (P30988 25-474 V283A): T1 sequence (P30988 25-474 V357A) with V259A, A333V
To be noted: CV1-FlpIn cells, mean ± S.E.M.; for Emax: pERK maximal response; for EC50: pERK, three-parameter logistic fit. An outline of the steps:
as §1

[1] abbreviates: pERK, three-parameter logistic fit.

The values that follow come from article PMC5908784, “Extracellular loops 2 and 3 of the calcitonin receptor selectively modify agonist binding and efficacy” (Biochemical Pharmacology, 2018).

Substitutions are numbered along the chain they refer to. Where a SMILES comes first, the peptide text is derived from it. Bridges are numbered along the chain shown (N, C = ends).

As usually defined, the Emax is the size of the effect at its maximum, as opposed to the concentration needed. One may read the EC50 as the concentration at which the effect is half-maximal. High values mean lower potency in that assay, low ones higher potency in that assay.

Consider `CC(C)C[C@H](NC(=O)[C@H](CCCCN)NC(=O)CNC(=O)[C@H](CC(C)C)NC(=O)[C@@H](NC(=O)[C@@H]1CSSC[C@H](N)C(=O)N[C@@H](CO)C(=O)N[C@@H](CC(N)=O)C(=O)N[C@@H](CC(C)C)C(=O)N[C@@H](CO)C(=O)N[C@@H]([C@@H](C)O)C(=O)N1)C(C)C)C(=O)N[C@@H](CO)C(=O)N[C@@H](CCC(N)=O)C(=O)N[C@@H](CCC(=O)O)C(=O)N[C@@H](CC(C)C)C(=O)N[C@@H](Cc1c[nH]cn1)C(=O)N[C@@H](CCCCN)C(=O)N[C@@H](CC(C)C)C(=O)N[C@@H](CCC(N)=O)C(=O)N[C@H](C(=O)N[C@@H](Cc1ccc(O)cc1)C(=O)N1CCC[C@H]1C(=O)N[C@@H](CCCNC(=N)N)C(=O)N[C@H](C(=O)N[C@@H](CC(N)=O)C(=O)N[C@H](C(=O)NCC(=O)N[C@@H](CO)C(=O)NCC(=O)N[C@H](C(=O)N1CCC[C@H]1C(N)=O)[C@@H](C)O)[C@@H](C)O)[C@@H](C)O)[C@@H](C)O` [sCT], for which the Emax at hCTR V357A amounted to 82 ± 7%; on hCTR M376A it was 72 ± 5%; on hCTR Y372A it was 39 ± 3%; on hCTR WT it was 100 ± 3%; on hCTR V283A it was 133 ± 10%.

Regarding `CSCC[C@H](NC(=O)CNC(=O)[C@H](CO)NC(=O)[C@H](Cc1ccccc1)NC(=O)[C@H](CCCNC(=N)N)NC(=O)[C@H](Cc1c[nH]cn1)NC(=O)[C@H](Cc1ccccc1)NC(=O)[C@H](CC(N)=O)NC(=O)[C@H](CC(N)=O)NC(=O)[C@H](CC(C)C)NC(=O)[C@H](CC(N)=O)NC(=O)[C@H](CCCNC(=N)N)NC(=O)[C@H](Cc1c[nH]c2ccccc12)NC(=O)[C@H](Cc1ccc(O)cc1)NC(=O)[C@H](C)NC(=O)[C@H](CO)NC(=O)[C@H](CC(C)C)NC(=O)[C@@H](NC(=O)[C@@H]1CSSC[C@H](N)C(=O)N[C@@H](CO)C(=O)N[C@@H](CC(N)=O)C(=O)N[C@@H](CC(C)C)C(=O)N[C@@H](CO)C(=O)N[C@@H]([C@@H](C)O)C(=O)N1)C(C)C)C(=O)NCC(=O)N[C@@H](Cc1ccccc1)C(=O)NCC(=O)N1CCC[C@H]1C(=O)N[C@@H](CCC(=O)O)C(=O)N[C@H](C(=O)N1CCC[C@H]1C(N)=O)[C@@H](C)O` [pCT] (H-CSNLSTCVLSAYWRNLNNFHRFSGMGFGPETP-NH2; disulfide 1-7), the Emax stood at 83 ± 10% at hCTR V357A; 47 ± 4% at hCTR M376A; 26 ± 4% on hCTR Y372A; 100 ± 3% at hCTR WT; 109 ± 12% at hCTR V283A. In addition, the EC50 at hCTR V357A (setting [1]) is 3.72 nM; on hCTR M376A, 1.95 nM; on hCTR Y372A (setting [1]), 19.1 nM; on hCTR WT, 1.12 nM; on hCTR V283A, 2.24 nM.

Consider `CC(C)C[C@H](NC(=O)[C@H](CC(N)=O)NC(=O)[C@H](CC(N)=O)NC(=O)[C@H](CO)NC(=O)[C@H](CO)NC(=O)[C@H](CCCNC(=N)N)NC(=O)[C@@H](NC(=O)[C@H](CC(C)C)NC(=O)[C@H](Cc1ccccc1)NC(=O)[C@H](CC(N)=O)NC(=O)[C@H](C)NC(=O)[C@H](CC(C)C)NC(=O)[C@H](CCCNC(=N)N)NC(=O)[C@H](CCC(N)=O)NC(=O)[C@@H](NC(=O)[C@H](C)NC(=O)[C@@H]1CSSC[C@H](NC(=O)[C@@H](N)CCCCN)C(=O)N[C@@H](CC(N)=O)C(=O)N[C@@H]([C@@H](C)O)C(=O)N[C@@H](C)C(=O)N[C@@H]([C@@H](C)O)C(=O)N1)[C@@H](C)O)C(C)C)C(=O)NCC(=O)N1CCC[C@H]1C(=O)N[C@H](C(=O)N[C@@H](CC(C)C)C(=O)N1CCC[C@H]1C(=O)N1CCC[C@H]1C(=O)N[C@H](C(=O)N[C@@H](CC(N)=O)C(=O)N[C@H](C(=O)NCC(=O)N[C@@H](CO)C(=O)N[C@@H](CC(N)=O)C(=O)N[C@H](C(=O)N[C@@H](Cc1ccc(O)cc1)C(N)=O)[C@@H](C)O)C(C)C)[C@@H](C)O)C(C)C` [rAmy], for which the Emax on hCTR V357A was 40 ± 8%; at hCTR M376A, 43 ± 7%; on hCTR WT, 100 ± 5%; at hCTR V283A, 83 ± 9%.

With `CC(C)C[C@H](NC(=O)CNC(=O)[C@H](C)NC(=O)[C@H](CC(C)C)NC(=O)[C@H](CCCNC(=N)N)NC(=O)[C@H](Cc1cnc[nH]1)NC(=O)[C@@H](NC(=O)[C@@H](NC(=O)[C@@H]1CSSC[C@H](NC(=O)[C@H](C)N)C(=O)N[C@@H](CC(=O)O)C(=O)N[C@@H]([C@@H](C)O)C(=O)N[C@@H](C)C(=O)N[C@@H]([C@@H](C)O)C(=O)N1)C(C)C)[C@@H](C)O)C(=O)N[C@@H](CC(C)C)C(=O)N[C@@H](CO)C(=O)N[C@@H](CCCNC(=N)N)C(=O)N[C@@H](CO)C(=O)NCC(=O)NCC(=O)N[C@H](C(=O)N[C@H](C(=O)N[C@@H](CCCCN)C(=O)N[C@@H](CC(N)=O)C(=O)N[C@@H](CC(N)=O)C(=O)N[C@@H](Cc1ccccc1)C(=O)N[C@H](C(=O)N1CCC[C@H]1C(=O)N[C@H](C(=O)N[C@@H](CC(N)=O)C(=O)N[C@H](C(=O)NCC(=O)N[C@@H](CO)C(=O)N[C@@H](CCCCN)C(=O)N[C@@H](C)C(=O)N[C@@H](Cc1ccccc1)C(N)=O)C(C)C)[C@@H](C)O)C(C)C)C(C)C)C(C)C` [hαCGRP], the Emax is 36 ± 8% at hCTR M376A, 100 ± 6% at hCTR WT and 81 ± 7% at hCTR V283A. Further, the EC50 at hCTR M376A was 18.2 nM; on hCTR WT it was 77.6 nM; at hCTR V283A, 60.3 nM.

As to `CC[C@H](C)[C@H](NC(=O)[C@H](C)NC(=O)[C@@H](NC(=O)[C@H](CCC(N)=O)NC(=O)[C@@H]1CCCN1C(=O)[C@H](Cc1ccccc1)NC(=O)[C@@H](NC(=O)[C@H](Cc1c[nH]cn1)NC(=O)[C@H](Cc1ccccc1)NC(=O)[C@H](CCCCN)NC(=O)[C@H](CC(N)=O)NC(=O)[C@H](Cc1ccccc1)NC(=O)[C@H](CC(=O)O)NC(=O)[C@H](CCC(N)=O)NC(=O)[C@@H](NC(=O)[C@H](Cc1ccc(O)cc1)NC(=O)[C@@H](NC(=O)CNC(=O)[C@H](CC(C)C)NC(=O)[C@H](CCSC)NC(=O)[C@@H]1CSSC[C@H](N)C(=O)NCC(=O)N[C@@H](CC(N)=O)C(=O)N[C@@H](CC(C)C)C(=O)N[C@@H](CO)C(=O)N[C@@H]([C@@H](C)O)C(=O)N1)[C@@H](C)O)[C@@H](C)O)[C@@H](C)O)[C@@H](C)O)C(=O)NCC(=O)N[C@H](C(=O)NCC(=O)N[C@@H](C)C(=O)N1CCC[C@H]1C(N)=O)C(C)C` [hCT], the Emax at hCTR V357A stood at 53 ± 5%; at hCTR M376A, 52 ± 4%; on hCTR Y372A it was 46 ± 4%; at hCTR WT it was 100 ± 3%; on hCTR V283A, 155 ± 14%.
